Measured values as given in patent US12667572B2, “Tricyclic compounds useful in the treatment of cancer, autoimmune and inflammatory disorders” (SCHRÖDINGER, INC., priority 2021, dated 2026).

Key:
[1] = molecular target: T1, full-length MALT1 protein His-MALT1(1-824) (Homo sapiens, UniProt Q9UDY8); assay: MALT1 protease assay, Assay 1 (2 nM MALT1, Ac-LRSR-AMC substrate); assay type: biochemical; details: 2 nM MALT1, 50 μM Ac-LRSR-AMC, 2 h pre-incubation, 8 hr incubation at RT
T1 construct: full-length MALT1 protein His-MALT1(1-824); His (N); made in house; host or cells: baculovirus-infected insect cells
T1 sequence (Q9UDY8 1-824): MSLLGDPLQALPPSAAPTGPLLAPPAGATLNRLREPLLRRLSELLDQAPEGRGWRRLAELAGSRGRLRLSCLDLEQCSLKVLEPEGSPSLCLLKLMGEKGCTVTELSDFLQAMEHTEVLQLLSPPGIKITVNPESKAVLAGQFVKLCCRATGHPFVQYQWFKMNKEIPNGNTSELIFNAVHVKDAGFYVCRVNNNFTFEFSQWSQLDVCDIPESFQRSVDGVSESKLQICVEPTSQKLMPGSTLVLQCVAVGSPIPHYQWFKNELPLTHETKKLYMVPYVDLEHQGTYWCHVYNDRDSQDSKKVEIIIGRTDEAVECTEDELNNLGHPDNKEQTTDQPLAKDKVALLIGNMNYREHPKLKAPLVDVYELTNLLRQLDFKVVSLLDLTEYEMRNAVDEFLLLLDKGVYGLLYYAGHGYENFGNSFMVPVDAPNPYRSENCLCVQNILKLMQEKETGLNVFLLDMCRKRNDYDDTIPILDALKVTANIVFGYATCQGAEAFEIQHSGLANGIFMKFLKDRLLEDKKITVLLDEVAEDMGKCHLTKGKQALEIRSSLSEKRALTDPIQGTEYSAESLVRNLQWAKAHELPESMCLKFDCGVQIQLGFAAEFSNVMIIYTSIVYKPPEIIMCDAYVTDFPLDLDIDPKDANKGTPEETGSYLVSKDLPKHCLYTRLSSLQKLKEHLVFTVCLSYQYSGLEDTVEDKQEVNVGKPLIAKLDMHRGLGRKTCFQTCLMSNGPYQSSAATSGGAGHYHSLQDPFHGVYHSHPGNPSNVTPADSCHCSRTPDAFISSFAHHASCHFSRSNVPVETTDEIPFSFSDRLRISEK
How it was run: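 Full-length His-MALT1(1-824) from baculovirus-infected insect cells, pre-incubated with compound 2 h at RT (0.1% DMSO). Then 50 μM Ac-LRSR-AMC added. Buffer was Tris pH 7.5 with 600 mM sodium citrate, DTT, EDTA and BSA. Fluorescence (ex 355/em 460 nm) was read after 8 h at RT and normalized to high/low controls. IC50 from non-linear regression.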

[2] = system: IL10 secretion in OCI-LY10 cells; assay: Human IL10 secretion assay, Assay 1 (HTRF); assay type: cell-based; details: 24 h incubation, read-out: IL-10 Secretion IC50 [nM] Assay 1
Procedure: IL10 is one of the cytokines that are regulated via activation of NF-kB signaling. For example, in ABC-DLBCL cell lines, the activated NF-kB signaling leads to increased IL10 secretion. Inhibition of NF-kB signaling has been shown leading to decreased IL10 secretion.
Assay 1: OCI-LY10 cells were seeded in IMEM supplemented with 20% fetal bovine serum at 3×10^5 cells per well in 96-well round bottom plates (Corning 3799, Corning), treated with 100 nL of 3-fold serial compound dilutions, starting at 10 mM. The final vehicle concentration was 0.1% DMSO in all wells. After 24 h incubation, the cells were transferred to 96-PCR plates (Axygen: PCR-96-FLT-C) and centrifuged, then 16 μL of cell culture media was transferred to HTRF plates and IL10 levels were measured using human IL-10 Assay Kits (Cisbio) using HTRF format. The signals were transformed to percentage of remaining activity by using the high control (HC, median of signal from wells containing cells treated with DMSO) and low control (LC, median of signal from wells with no cells). IC50 values (nM) were determined using 4-parametric curve-fitting and Hill coefficient obtained using Graph Pad Prism (Graph Pad software, Inc, USA) with non-linear regression analysis.

Row | IC50 [1] | IC50 [2] | Compound
1 | < 10 nM | 100 to 1000 nM | CC1(C)CC(C(=O)Nc2cnc(-n3nccn3)c(Cl)c2)c2cnc3cc(Cl)nn3c21 (single isomer, unassigned) [Example 2, 2-chloro-N-(5-chloro-6-(2H-1,2,3-triazol-2-yl)pyridin-3-yl)-8,8-dimethyl-7,8-dihydro-6H-cyclopenta[e]pyrazolo[1,5-a]pyrimidine-6-carboxamide]
2 | 10 to 100 nM | 100 to 1000 nM | CC1(C)CC(C(=O)Nc2cnc(-n3nccn3)c(Cl)c2)c2cnc3cc(C#N)nn3c21 (single isomer, unassigned) [Example 4, N-(5-chloro-6-(2H-1,2,3-triazol-2-yl)pyridin-3-yl)-2-cyano-8,8-dimethyl-7,8-dihydro-6H-cyclopenta[e]pyrazolo[1,5-a]pyrimidine-6-carboxamide]
3 | < 10 nM | 100 to 1000 nM | Cc1cc2ncc3c(n2n1)C(C)(C)C[C@@H]3C(=O)Nc1cnc(-n2nccn2)c(Cl)c1 (single isomer, unassigned) [Example 6, N-(5-chloro-6-(2H-1,2,3-triazol-2-yl)pyridin-3-yl)-2,8,8-trimethyl-7,8-dihydro-6H-cyclopenta[e]pyrazolo[1,5-a]pyrimidine-6-carboxamide]
4 | 10 to 100 nM | 100 to 1000 nM | CC1(C)CCC(C(=O)Nc2cnc(-n3nccn3)c(Cl)c2)c2cnc3cc(Cl)nn3c21 (single isomer, unassigned) [Example 9, 2-chloro-N-(5-chloro-6-(2H-1,2,3-triazol-2-yl)pyridin-3-yl)-9,9-dimethyl-6,7,8,9-tetrahydropyrazolo[1,5-a]quinazoline-6-carboxamide]
5 | 10 to 100 nM | 100 to 1000 nM | Cn1ccc(-c2ncc(NC(=O)C3CC(C)(C)c4c3cnc3cc(Cl)nn43)cc2Cl)n1 (single isomer, unassigned) [Example 11, 2-chloro-N-(5-chloro-6-(1-methyl-1H-pyrazol-3-yl)pyridin-3-yl)-8,8-dimethyl-7,8-dihydro-6H-cyclopenta[e]pyrazolo[1,5-a]pyrimidine-6-carboxamide]
6 | 10 to 100 nM | 100 to 1000 nM | CC1(C)CC(C(=O)Nc2cnc(-n3cccn3)c(Cl)c2)c2cnc3cc(Cl)nn3c21 (single isomer, unassigned) [Example 13, 2-chloro-N-(5-chloro-6-(1H-pyrazol-1-yl)pyridin-3-yl)-8,8-dimethyl-7,8-dihydro-6H-cyclopenta[e]pyrazolo[1,5-a]pyrimidine-6-carboxamide]
7 | 10 to 100 nM | ≥ 1000 nM | CCc1cc2ncc3c(n2n1)C(C)(C)CC3C(=O)Nc1cnc(-n2nccn2)c(Cl)c1 (single isomer, unassigned) [Example 21, N-(5-chloro-6-(2H-1,2,3-triazol-2-yl)pyridin-3-yl)-2-ethyl-8,8-dimethyl-7,8-dihydro-6H-cyclopenta[e]pyrazolo[1,5-a]pyrimidine-6-carboxamide]
8 | < 10 nM | 100 to 1000 nM | CC(C)(O)c1cnn(-c2ncc(NC(=O)C3CC(C)(C)c4c3cnc3cc(Cl)nn43)cc2Cl)n1 (single isomer, unassigned) [Example 23, 2-chloro-N-(5-chloro-6-(4-(2-hydroxypropan-2-yl)-2H-1,2,3-triazol-2-yl)pyridin-3-yl)-8,8-dimethyl-7,8-dihydro-6H-cyclopenta[e]pyrazolo[1,5-a]pyrimidine-6-carboxamide]
9 | 10 to 100 nM | 100 to 1000 nM | CC1(C)CC(C(=O)Nc2cnc(-n3nccn3)c(Cl)c2)c2cnc3cc(C(F)F)nn3c21 (single isomer, unassigned) [Example 25, N-(5-chloro-6-(2H-1,2,3-triazol-2-yl)pyridin-3-yl)-2-(difluoromethyl)-8,8-dimethyl-7,8-dihydro-6H-cyclopenta[e]pyrazolo[1,5-a]pyrimidine-6-carboxamide]
10 | 10 to 100 nM | 100 to 1000 nM | CC1(C)C[C@H](C(=O)Nc2cnc([C@H]3CCCO3)c(Cl)c2)c2cnc3cc(Cl)nn3c21 (single isomer, unassigned) [Example 29, 2-chloro-N-(5-chloro-6-(tetrahydrofuran-2-yl)pyridin-3-yl)-8,8-dimethyl-7,8-dihydro-6H-cyclopenta[e]pyrazolo[1,5-a]pyrimidine-6-carboxamide]
11 | < 10 nM | 100 to 1000 nM | CC1(C)CC(C(=O)Nc2cnc(-n3ncc(CO)n3)c(Cl)c2)c2cnc3cc(Cl)nn3c21 (single isomer, unassigned) [Example 31, 2-chloro-N-(5-chloro-6-(4-(hydroxymethyl)-2H-1,2,3-triazol-2-yl)pyridin-3-yl)-8,8-dimethyl-7,8-dihydro-6H-cyclopenta[e]pyrazolo[1,5-a]pyrimidine-6-carboxamide]
12 | < 10 nM | 10 to 100 nM | CC1(C)CC(C(=O)Nc2cnc(-n3nccn3)c(Cl)c2)c2cnc3cc(F)nn3c21 (single isomer, unassigned) [Example 33, N-(5-chloro-6-(2H-1,2,3-triazol-2-yl)pyridin-3-yl)-2-fluoro-8,8-dimethyl-7,8-dihydro-6H-cyclopenta[e]pyrazolo[1,5-a]pyrimidine-6-carboxamide]
13 | 10 to 100 nM | ≥ 1000 nM | Cn1cnc(-c2ncc(NC(=O)C3CC(C)(C)c4c3cnc3cc(Cl)nn43)cc2Cl)c1 (single isomer, unassigned) [Example 35, 2-chloro-N-(5-chloro-6-(1-methyl-1H-imidazol-4-yl)pyridin-3-yl)-8,8-dimethyl-7,8-dihydro-6H-cyclopenta[e]pyrazolo[1,5-a]pyrimidine-6-carboxamide]
14 | < 10 nM | 100 to 1000 nM | C[C@@]1(C(F)(F)F)C[C@H](C(=O)Nc2cnc(-n3nccn3)c(Cl)c2)c2cnc3cc(Cl)nn3c21 (single isomer, unassigned) [Example 36, 2-chloro-N-(5-chloro-6-(2H-1,2,3-triazol-2-yl)pyridin-3-yl)-8-methyl-8-(trifluoromethyl)-7,8-dihydro-6H-cyclopenta[e]pyrazolo[1,5-a]pyrimidine-6-carboxamide]
15 | 10 to 100 nM | ≥ 1000 nM | C[C@]1(C(F)(F)F)C[C@@H](C(=O)Nc2cnc(-n3nccn3)c(Cl)c2)c2cnc3cc(Cl)nn3c21 (single isomer, unassigned) [Example 37, 2-chloro-N-(5-chloro-6-(2H-1,2,3-triazol-2-yl)pyridin-3-yl)-8-methyl-8-(trifluoromethyl)-7,8-dihydro-6H-cyclopenta[e]pyrazolo[1,5-a]pyrimidine-6-carboxamide]
16 | < 10 nM | 100 to 1000 nM | C[C@]1(C(F)(F)F)C[C@H](C(=O)Nc2cnc(-n3nccn3)c(Cl)c2)c2cnc3cc(Cl)nn3c21 (single isomer, unassigned) [Example 38, 2-chloro-N-(5-chloro-6-(2H-1,2,3-triazol-2-yl)pyridin-3-yl)-8-methyl-8-(trifluoromethyl)-7,8-dihydro-6H-cyclopenta[e]pyrazolo[1,5-a]pyrimidine-6-carboxamide]
